# “And” between values parts separate entries of the source, which are not always exact repeats. Identical values can stand only once.
# Key:
# [1] = test system: established leukemias (AML and ALL); assay: Rapamycin against established leukemias in mice transplanted with Pten fl/fl Mx-1-Cre bone marrow cells, starting 15 weeks after pIpC; assay type: in vivo; details: daily 4 mg/kg from 15 weeks after pIpC
# Method: (§1) Administration of Rapamycin.
# (§2) Histopathology. Spleen, liver, and thymus samples were fixed in 10% neutral buffered formalin and paraffin embedded. Thin sections (5 μm) were cut on a microtome and stained with hematoxylin and eosin using standard protocols. Chloroacetate esterase staining was performed using a Leder stain kit (Sigma).
# To test if rapamycin was effective against established leukemias, mice that had been transplanted with Pten^fl/fl Mx-1-Cre bone marrow cells were treated with daily injections of vehicle or rapamycin, beginning 15 weeks after pIpC.
# Mice that had been transplanted with 1×10^6 Pten^fl/fl Mx-1-Cre donor (CD45.2^+) bone marrow cells along with 0.5×10^6 control (CD45.1^+) bone marrow cells were treated with daily injections of vehicle or rapamycin (4 mg/kg), starting 15 weeks after pIpC treatment.
# [2] = test system: Flk2^−Sca-1^+Lin^−c-kit^+CD48^− cells (HSCs); details: mouse, in vivo
# Source text: Flow cytometry and the isolation of hematopoietic stem cells (HSCs). Bone marrow cells were flushed from long bones with Hank's buffered salt solution without calcium or magnesium, supplemented with 2% heat-inactivated calf serum (GIBCO, Grand Island, N.Y.; HBSS^+). Cells were triturated and filtered through a nylon screen (45 μm, Sefar America, Kansas City, Mo.) to obtain a single cell suspension. Flk2^−Sca-1^+ Lineage^− c-kit^+ CD48^− HSCs and Thy1.1^low Sca-1^+ Mac-1^low CD4^low B220 MPPs were isolated as previously described (See, e.g., Christensen and Weissman, Proc Natl Acad Sci USA 98, 14541-6 (2001); Kiel et al., Cell 121, 1109-21 (2005); Morrison and Weissman, Immunity 1, 661-673 (1994)). For isolation of Flk2^−Sca-1^+ Lineage c-kit^+ CD48^− HSCs, whole bone marrow cells were incubated with unconjugated monoclonal antibodies to lineage markers including B220 (6B2), CD3 (KT31.1), CD4 (GK1.5), CD5 (53-7.3), CD8 (53-6.7), Gr-1 (8C5), Mac-1 (M1/70) and Terl19. Following dilution, pelleted cells were resuspended in anti-rat IgG-specific F(ab)2 conjugated to phycoerythrin (PE; Jackson ImmunoResearch, West Grove, Pa.). […] When CD45.2^+ HSCs were analyzed, CD45.2 (104-FITC; BD PharMingen) and CD48 (HM48-1-PE, eBioscience) were used. […]
# Cell cycle analysis. BrdU incorporation was measured by flow-cytometry (BD PharMingen). […]
# Pten^fl/flMx-1-Cre mice = assay: Rapamycin given immediately after Pten deletion (pIpC) in Pten fl/fl Mx-1-Cre mice; assay type: in vivo; details: daily injections for 7 days after pIpC treatment
# Method: Administration of polyinosine-polycytidine (pIpC) to induce Mx-1-Cre expression. pIpC (Sigma P-0913) was resuspended with DPBS at a concentration of 2 mg/ml and passed through a 0.22 uM filter (See, e.g., Mikkola et al., Nature 421, 54751 (2003)). Mice received 25 ug of pIpC/g of body mass every other day for 2 weeks.
# as §1, §2
# All 3 such mice in this experiment died within 3-4 weeks of pIpC treatment, with AML and ALL (FIG. 9c).
smiles,measurement,setting,value
CO[C@H]1C[C@@H]2CC[C@@H](C)[C@@](O)(O2)C(=O)C(=O)N2CCCC[C@H]2C(=O)O[C@H]([C@H](C)C[C@@H]2CC[C@@H](O)[C@H](OC)C2)CC(=O)[C@H](C)/C=C(\C)[C@@H](O)[C@@H](OC)C(=O)[C@H](C)C[C@H](C)/C=C/C=C/C=C/1C [Rapamycin],"Bone marrow HSCs that were donor type, average",[1]; average of 3 mice,39 ± 6%
same,Bone marrow HSCs that were donor type,"[1]; individual mice, Pten-deficient donor (CD45.2+) HSCs, 4 mg/kg",35% and 45% and 36%
same,HSC numbers in control mice,[2],without affecting
same,proliferation of HSCs from control littermates,[2],without affecting
same,bone marrow and spleen cellularity in control mice,Pten^fl/flMx-1-Cre mice,without significantly affecting
